# Test results published in patent publication US20250304612A1, “THERAPEUTIC AGENT FOR BLOOD CANCER” (Aptabio Therapeutics Inc., priority 2017, published 2025).
# Legend:
# Assay in all cases: MTT cytotoxicity assay, drug-resistant blood cancer cells
# Assay type in all cases: cell-based
# [1] = test system: Cytarabine-resistant HL-60; conditions: Homo sapiens, 120 h; Cytarabine-resistant HL-60, MTT, 5 days; read-out: IC50, cytotoxic effects on drug-resistant blood cancer cells
# [2] = test system: Cytarabine-resistant MV-4-11; conditions: Homo sapiens, MV4-11, 120 h; Cytarabine-resistant MV-4-11, MTT, 5 days; read-out: IC50, cytotoxic effects on drug-resistant blood cancer cells
# [3] = test system: Decitabine-resistant MOLM13; conditions: Homo sapiens, MOLM-13, 120 h, 5 days, read-out: IC50, cytotoxic effects on drug-resistant blood cancer cells
# Experimental: (§1) Each oligonucleotide-modified nucleic acid was diluted in a 10 mM Tris-HCl (pH 7.4) solution to a final concentration of 100 μM. The diluted solution was allowed to stand at 94° C. for 5 minutes and then the tube was allowed to stand on ice. The resulting solution was added with a 2M KCl solution such that a final concentration of the KCl solution became 50 mM, allowed to stand at 60° C. for 3 hours and was slowly cooled to room temperature. Each oligonucleotide was diluted in a 10 mM Tris-HCl (pH 7.4) solution to a concentration of 10 μM, and was allowed to stand at 94° C. for 5 minutes, and the tube was allowed to stand on ice. The resulting solution was added with a 2M KCl solution such that the final concentration of the KCl solution became 50 mM, and allowed to stand at 60° C. for 3 hours and then slowly cooled to room temperature, which was then used for the present Example.
# (§2) On the day before the experiment, 190 μl of a culture medium (at a concentration of 10^4 to 10^5 cells/ml) containing blood cancer cells such as HL60, MV-4-11, CCRF-CEM, MOLT-4 and MOLM-13 cell lines, and drug-resistant blood cancer cells such as azacitidine (AZA-1)-resistant MOLM13, decitabine (Dec-5)-resistant MOLM13 and cytarabine (AraC-1)-resistant MOLM13 cell lines, and normal cells such as WI38, CCD-18co and Fa2N4 cells were seeded on a 96-well plate. The next day, 10 μl of the oligonucleotide-modified nucleic acid solution prepared in Example 2 was added and then cultured for 5 days.
# (§3) Five days after drug treatment, MTT assay was performed to measure cytotoxicity of the cell lines [see JBC 1999, 26369].
# [4] = test system: Azacitidine-resistant MOLM13; conditions: Homo sapiens, MOLM-13, 120 h, 5 days, read-out: IC50, cytotoxic effects on drug-resistant blood cancer cells
# Experimental: as §1, §2, §3
# [5] = test system: Cytarabine-resistant MOLM13; conditions: Homo sapiens, MOLM-13, 120 h, 5 days, read-out: IC50, cytotoxic effects on drug-resistant blood cancer cells
# Experimental: as §1, §2, §3
smiles,measurement,setting,value
"Nc1ccn([C@@H]2O[C@H](CO)[C@@H](O)[C@@H]2O)c(=O)n1 [Cytarabine, cytarabine]",IC50,[1],> 30 µM
same,IC50,[2],> 20 µM
same,IC50,[3],3.49 µM
same,IC50,[4],3.5 µM
same,IC50,[5],> 10 µM
